Patent EP0126817A1, “Suppressing of graft rejection in organ transplantation” (SHANKSVILLE CORPORATION N.V., priority 1983, dated 1984)

How the values were obtained:
Format in all cases: cell-based
[1] = system: Peripheral blood lymphocytes; test: T lymphocyte blast transformation in IL-2 containing culture medium pretreated with the ganglioside and dialysed; details: IL-2 medium RPMI 1640 treated with 5 micrograms per ml at 37°C for 30 minutes, dialysed 24 hours at 4°C; cells incubated 7 days
Protocol: This Example illustrates that asialo GM1 reacts with a soluble mediator for T lymphocyte blastogenesis inhibiting cytotoxic T cell formation. Peripheral blood lymphocytes are isolated by a density gradient centrifugation on ficoll hypaque and incubated 24 hours in the absence of serum proteins. Interleukin 2 containing tissue culture medium RPMI 1640 is treated with asialo GM1 in a concentration of 5 micrograms per ml of culture medium. The incubation with asialo GM1 is performed at 37°C for 30 minutes. Thereafter,the treated culture medium is dialysed against RPMI 1640 without supplements for 24 hours at a temperature of 4°C. The cells are incubated in the dialysed (and thus containing no free asialo GM1) culture medium for 7 days. For dialysis, the critical micellar concentration (CMC) of the ganglioside has to be regarded. If it is exceeded, dialysis will be impossible. CMC values for each ganglioside have been established, and are readily available.

[2] = system: T cell blasts; test: In vitro T cell culture systems containing IL-2 (general finding)
Text: This observation therefore leads to an in vivo procedure for modification of the cell mediated immunological graft rejection mechanism by blocking the formation of cytotoxic T cells at the level of the T effector cells and without destroying macrophage cells. Accordingly, the procedure of the present invention is highly advantageous as compared to presently available techniques for transplant protection, particularly by the use of immunosuppressive drugs. […] Therefore, such drugs will subject the patient to increased risk of infectious diseases. […] At the time of the graft transplantation therefore, the consequence of IL-2 and T cell blasts will allow the latter to proliferate until the IL-2 is consumed. This process generally requires several days. In contrast, the immunosuppressive blocking agents of this invention require less than 24 hours to effectively terminate cytotoxic T cell proliferation and to kill off any existing cytotoxic T cells.

[3] = system: cytotoxic T lymphoblasts; test: Chromium release test: inhibition of tumor cell killing by cytotoxic T cells activated by interleukin 2; details: HeLa tumor cells labelled with radioactive chromium, 2 micrograms per ml of culture medium
Protocol: The following test is conducted to determine the inhibition of tumor cell killing capability of cytotoxic T cells activated by interleukin 2. Tumor cells from HeLa strain are labelled with radioactive chromium. The cells are washed and divided into two portions comprising the same cell number. Both portions are coincubated with cytotoxic T lymphoblasts for 18 hours. The culture medium contains IL-2. To one of the portions, at the beginning of the cocultivation, desialo GM1 is added'in concentration of 2 micrograms per ml of culture medium. The culture medium is decanted and the cells are pelleted in a centrifuge.

Gal(beta 1-3)GalNac(beta 1-4)Glc(beta 1-1)Cer [asialo GM1]
blast transformation of T cells [1]: no blast transformation of T cells is observed | proliferation of T cell blasts in growing T cell lines [2]: prevents proliferation of T cell blasts | % of Cr released, Target and T cell ([3]; coincubated with cytotoxic T lymphoblasts for 18 hours, IL-2 medium): 5.3% | % of Cr released, Target and control ([3]; control in place of T cells, 18 hours): 3.8%
